# Data reported in the supplement of paper PMC13380429.
# Legend:
# [1] = tested on: A549-ACE2 infected with SARS-CoV-2; experiment: SARS-CoV-2 infection rate relative to DMSO; higher = more infection; details: 24 h
# [2] = tested on: A549-ACE2 infected with SARS-CoV-2; experiment: morphology score (similarity to uninfected cells); higher = more like uninfected cells; details: 24 h
# [3] = tested on: A549-ACE2 infected with SARS-CoV-2; experiment: cell count relative to DMSO; higher = less toxic; details: 24 h
# A549-ACE2 [4] = experiment: drug-induced phospholipidosis relative to tamoxifen; higher = more phospholipidosis
# U2OS [5] = experiment: drug sensitivity score (DSS) for viability; higher = more toxic; extreme values may be limits of the assay; details: 72 h
# Calu-3 [6] = experiment: as above; details: 72 h
# Vero E6 [7] = experiment: as above; details: 72 h
# HepG2 [8] = experiment: as above; details: 72 h
# Caco-2 [9] = experiment: as above; details: 72 h
# A549-ACE2 [10] = experiment: phospholipidosis EC50; higher = less potent phospholipidosis inducer
# Vero E6 [11] = experiment: relative viability EC50 (midpoint between 100% and the lowest measured viability); higher = less toxic; details: 72 h
# HepG2 [12] = experiment: as above; details: 72 h
# U2OS [13] = experiment: cell viability relative to DMSO; higher = less toxic; details: 72 h
# Calu-3 [14] = experiment: as above; details: 72 h
# Vero E6 [15] = experiment: as above; details: 72 h
# HepG2 [16] = experiment: as above; details: 72 h
# Caco-2 [17] = experiment: as above; details: 72 h
# U2OS [18] = experiment: relative viability EC50 (midpoint between 100% and the lowest measured viability); higher = less toxic; details: 72 h
# Calu-3 [19] = experiment: as above; details: 72 h
# Caco-2 [20] = experiment: as above; details: 72 h
compound,measurement,setting,value
CCOC(=O)c1c(C)[nH]c2ccc3c(c12)CN1CCc2cc(OC)ccc2C1O3 (centres undefined),SARS-CoV-2 infection rate,[1]; 0.3 µM,105%
same,SARS-CoV-2 infection rate,[1]; 3 µM,59%
same,SARS-CoV-2 infection rate,[1]; 10 µM,25%
same,SARS-CoV-2 infection rate,[1]; 30 µM,26%
same,morphology score,[2]; 0.3 µM,-0.2
same,morphology score,[2]; 3 µM,0.69
same,morphology score,[2]; 10 µM,0.83
same,morphology score,[2]; 30 µM,0.42
same,cell count,[3]; 0.3 µM,98%
same,cell count,[3]; 3 µM,112%
same,cell count,[3]; 10 µM,114%
same,cell count,[3]; 30 µM,92%
same,drug-induced phospholipidosis,"A549-ACE2 [4]; 0.3 µM, 24 h",2.45%
same,drug-induced phospholipidosis,"A549-ACE2 [4]; 0.3 µM, 48 h",1.49%
same,drug-induced phospholipidosis,"A549-ACE2 [4]; 0.3 µM, 72 h",3.49%
same,drug-induced phospholipidosis,"A549-ACE2 [4]; 0.833333 µM, 24 h",1.52%
same,drug-induced phospholipidosis,"A549-ACE2 [4]; 0.833333 µM, 48 h",1.91%
same,drug-induced phospholipidosis,"A549-ACE2 [4]; 0.833333 µM, 72 h",0.0297%
same,drug-induced phospholipidosis,"A549-ACE2 [4]; 3.33333 µM, 24 h",13.8%
same,drug-induced phospholipidosis,"A549-ACE2 [4]; 3.33333 µM, 48 h",7.41%
same,drug-induced phospholipidosis,"A549-ACE2 [4]; 3.33333 µM, 72 h",4.37%
same,drug-induced phospholipidosis,"A549-ACE2 [4]; 6.66667 µM, 24 h",23.7%
same,drug-induced phospholipidosis,"A549-ACE2 [4]; 6.66667 µM, 48 h",9.35%
same,drug-induced phospholipidosis,"A549-ACE2 [4]; 6.66667 µM, 72 h",8.63%
same,drug-induced phospholipidosis,"A549-ACE2 [4]; 10 µM, 24 h",49.6%
same,drug-induced phospholipidosis,"A549-ACE2 [4]; 10 µM, 48 h",10.9%
same,drug-induced phospholipidosis,"A549-ACE2 [4]; 10 µM, 72 h",10.6%
same,drug-induced phospholipidosis,"A549-ACE2 [4]; 30 µM, 24 h",77.6%
same,drug-induced phospholipidosis,"A549-ACE2 [4]; 30 µM, 48 h",99.9%
same,drug-induced phospholipidosis,"A549-ACE2 [4]; 30 µM, 72 h",83.4%
same,drug sensitivity score,U2OS [5],2.2
same,drug sensitivity score,Calu-3 [6],2.6
same,drug sensitivity score,Vero E6 [7],1.1
same,drug sensitivity score,HepG2 [8],7.1
same,drug sensitivity score,Caco-2 [9],3.6
same,phospholipidosis EC50,A549-ACE2 [10]; 24 h,9.3 µM
same,relative viability EC50,Vero E6 [11],> 10 µM
same,relative viability EC50,HepG2 [12],1.4 µM
same,cell viability,U2OS [13]; 1 nM,97.3%
same,cell viability,U2OS [13]; 10 nM,100%
same,cell viability,U2OS [13]; 100 nM,99.8%
same,cell viability,U2OS [13]; 1000 nM,98.3%
same,cell viability,U2OS [13]; 10000 nM,61%
same,cell viability,Calu-3 [14]; 1 nM,102%
same,cell viability,Calu-3 [14]; 10 nM,101%
same,cell viability,Calu-3 [14]; 100 nM,109%
same,cell viability,Calu-3 [14]; 1000 nM,98.4%
same,cell viability,Calu-3 [14]; 10000 nM,53.6%
same,cell viability,Vero E6 [15]; 1 nM,102%
same,cell viability,Vero E6 [15]; 10 nM,104%
same,cell viability,Vero E6 [15]; 100 nM,92%
same,cell viability,Vero E6 [15]; 1000 nM,91.5%
same,cell viability,Vero E6 [15]; 10000 nM,80.1%
same,cell viability,HepG2 [16]; 1 nM,93.2%
same,cell viability,HepG2 [16]; 10 nM,92.8%
same,cell viability,HepG2 [16]; 100 nM,97.2%
same,cell viability,HepG2 [16]; 1000 nM,78.4%
same,cell viability,HepG2 [16]; 10000 nM,29%
same,cell viability,Caco-2 [17]; 1 nM,103%
same,cell viability,Caco-2 [17]; 10 nM,98.8%
same,cell viability,Caco-2 [17]; 100 nM,95.8%
same,cell viability,Caco-2 [17]; 1000 nM,93.1%
same,cell viability,Caco-2 [17]; 10000 nM,53.6%
O=C(CN1C2=NCCN2c2ccccc21)c1ccc(-c2ccccc2)cc1,SARS-CoV-2 infection rate,[1]; 0.3 µM,105%
same,SARS-CoV-2 infection rate,[1]; 3 µM,67%
same,SARS-CoV-2 infection rate,[1]; 10 µM,14%
same,SARS-CoV-2 infection rate,[1]; 30 µM,51%
same,morphology score,[2]; 0.3 µM,-0.08
same,morphology score,[2]; 3 µM,0.58
same,morphology score,[2]; 10 µM,0.78
same,morphology score,[2]; 30 µM,-0.05
same,cell count,[3]; 0.3 µM,101%
same,cell count,[3]; 3 µM,114%
same,cell count,[3]; 10 µM,118%
same,cell count,[3]; 30 µM,106%
same,drug-induced phospholipidosis,"A549-ACE2 [4]; 0.3 µM, 24 h",2.47%
same,drug-induced phospholipidosis,"A549-ACE2 [4]; 0.3 µM, 48 h",4.83%
same,drug-induced phospholipidosis,"A549-ACE2 [4]; 0.3 µM, 72 h",2.9%
same,drug-induced phospholipidosis,"A549-ACE2 [4]; 0.833333 µM, 24 h",0.7%
same,drug-induced phospholipidosis,"A549-ACE2 [4]; 0.833333 µM, 48 h",1.26%
same,drug-induced phospholipidosis,"A549-ACE2 [4]; 0.833333 µM, 72 h",-4.28%
same,drug-induced phospholipidosis,"A549-ACE2 [4]; 3.33333 µM, 24 h",26.4%
same,drug-induced phospholipidosis,"A549-ACE2 [4]; 3.33333 µM, 48 h",21.7%
same,drug-induced phospholipidosis,"A549-ACE2 [4]; 3.33333 µM, 72 h",15%
same,drug-induced phospholipidosis,"A549-ACE2 [4]; 6.66667 µM, 24 h",46.9%
same,drug-induced phospholipidosis,"A549-ACE2 [4]; 6.66667 µM, 48 h",49.5%
same,drug-induced phospholipidosis,"A549-ACE2 [4]; 6.66667 µM, 72 h",36.6%
same,drug-induced phospholipidosis,"A549-ACE2 [4]; 10 µM, 24 h",91.5%
same,drug-induced phospholipidosis,"A549-ACE2 [4]; 10 µM, 48 h",106%
same,drug-induced phospholipidosis,"A549-ACE2 [4]; 10 µM, 72 h",99.6%
same,drug-induced phospholipidosis,"A549-ACE2 [4]; 30 µM, 24 h",84%
same,drug-induced phospholipidosis,"A549-ACE2 [4]; 30 µM, 48 h",117%
same,drug sensitivity score,U2OS [5],0
same,drug sensitivity score,Calu-3 [6],0.4
same,drug sensitivity score,Vero E6 [7],0.8
same,drug sensitivity score,HepG2 [8],1.2
same,drug sensitivity score,Caco-2 [9],0
same,phospholipidosis EC50,A549-ACE2 [10]; 24 h,5.39 µM
same,phospholipidosis EC50,A549-ACE2 [10]; 48 h,7.27 µM
same,phospholipidosis EC50,A549-ACE2 [10]; 72 h,8.25 µM
same,relative viability EC50,U2OS [18],> 10 µM
same,relative viability EC50,Calu-3 [19],> 10 µM
same,relative viability EC50,Vero E6 [11],> 10 µM
same,relative viability EC50,Caco-2 [20],> 10 µM
same,cell viability,U2OS [13]; 1 nM,108%
same,cell viability,U2OS [13]; 10 nM,104%
same,cell viability,U2OS [13]; 100 nM,99.1%
same,cell viability,U2OS [13]; 1000 nM,99.3%
same,cell viability,U2OS [13]; 10000 nM,90.6%
same,cell viability,Calu-3 [14]; 1 nM,94.5%
same,cell viability,Calu-3 [14]; 10 nM,99.2%
same,cell viability,Calu-3 [14]; 100 nM,92.9%
same,cell viability,Calu-3 [14]; 1000 nM,100%
same,cell viability,Calu-3 [14]; 10000 nM,82.2%
same,cell viability,Vero E6 [15]; 1 nM,103%
same,cell viability,Vero E6 [15]; 10 nM,99.5%
same,cell viability,Vero E6 [15]; 100 nM,98.8%
same,cell viability,Vero E6 [15]; 1000 nM,95.4%
same,cell viability,Vero E6 [15]; 10000 nM,83.4%
same,cell viability,HepG2 [16]; 1 nM,98.7%
same,cell viability,HepG2 [16]; 10 nM,97.4%
same,cell viability,HepG2 [16]; 100 nM,95.1%
same,cell viability,HepG2 [16]; 1000 nM,98.4%
same,cell viability,HepG2 [16]; 10000 nM,74.1%
same,cell viability,Caco-2 [17]; 1 nM,99.6%
same,cell viability,Caco-2 [17]; 10 nM,102%
same,cell viability,Caco-2 [17]; 100 nM,110%
same,cell viability,Caco-2 [17]; 1000 nM,102%
same,cell viability,Caco-2 [17]; 10000 nM,88.8%
